Measurements reported in publication PMC7146574, “Efficacy of a Novel ACE-Inhibitory Peptide from Sargassum maclurei in Hypertension and Reduction of Intracellular Endothelin-1” (Nutrients, 2020).
Residues, ends and D or L forms follow the SMILES beside them.

Experiments:
[1] = test system: endothelin-1 (ET-1) in EA.hy926 cells; assay: Effects on intracellular endothelin-1 (ET-1), ELISA of growth medium; format: cell-based, human; details: captopril 1.0 mg/mL as comparison, 48 h
Procedure: In a humidified atmosphere with 5% CO2, the EA.hy926 cells (a permanent hybridoma of the human umbilical vein endothelial cells and human lung carcinoma cell line A549) grown in 96-well plates were cultured in DMEM containing non-essential amino acids (10 mg/mL), streptomycin (0.1 mg/mL), and fetal bovine serum (0.1 g/mL) at 37 °C [5]. The cells (1.0 × 10^5 cells mL^−1) were treated with the synthesized peptides (0.5–1.5 mg/mL) for 24 h, and then the MTT assay was used to measure the cytotoxicity levels of the peptides. Moreover, EA.hy926 cells seeded in another 96-well plate (1.0 × 10^5 cells mL^−1) were cultured in DMEM at 37 °C for 24 h, and then treated with synthesized peptides (1–2 mg/mL) for 48 h. After that, the ET-1 content of the growth medium in each well was quantified by the ET-1 Elisa kit according to the instructions. Cells in the blank group were not treated with samples, while the cells in the positive group were treated with captopril (1 mg/mL). The inhibition ability on ET-1 was calculated as follows:(1) Inhibition abliliy (%)=(CB−Cs)/CB×100% where CB was the ET-1 content of the growth medium in the blank group and CS was the ET-1 content of the growth medium treated with the samples.

ACE = test system: ACE; parameters: method as in 5 sources, ref 8, 38 = [8]; PMID 30893907; doi:10.3390/md17030179; 8. Sun S. Xu X. Sun X. Zhang X. Chen X. Xu N. Preparation and Identification of ACE Inhibitory Peptides from the Marine Macroalga Ulva intestinalis Mar. Drugs 2019 17 179 10.3390/md17030179 PMC6471128 || [38]; doi:10.1016/j.jff.2015.10.025; 38. Forghani B. Zarei M. Ebrahimpour A. Philip R. Bakar J. Abdul-Hamid A. Saari N. Purification and characterization of angiotensin converting enzyme-inhibitory peptides derived from Stichopus horrens ||| ref 5, 9 = [5]; PMID 31108740; doi:10.1016/j.foodres.2019.03.035; 5. Zhao Y. Zhang L. Tao J. Chi C. Wang B. Eight antihypertensive peptides from the protein hydrolysate of Antarctic krill ( Euphausia superba ): Isolation, identification, and activity evaluation on h || [9]; PMID 30229250; doi:10.1039/C8FO00569A; 9. Ling Y. Sun L.P. Zhuang Y.L. Preparation and identification of novel inhibitory angiotensin-I-converting enzyme peptides from tilapia skin gelatin hydrolysates: Inhibition kinetics and molecular do ||| ref 38, 40 = [38]; doi:10.1016/j.jff.2015.10.025; 38. Forghani B. Zarei M. Ebrahimpour A. Philip R. Bakar J. Abdul-Hamid A. Saari N. Purification and characterization of angiotensin converting enzyme-inhibitory peptides derived from Stichopus horrens || [40]; PMID 29606478; doi:10.1016/j.foodchem.2018.02.107; 40. Tu M. Wang C. Chen C. Zhang R. Liu H. Lu W. Jing L. Du M. Identification of a novel ACE-inhibitory peptide from casein and evaluation of the inhibitory mechanisms Food Chem. 2018 256 98 104 10.101 ||| ref 41, 28 = [41]; doi:10.1016/j.lwt.2018.12.059; 41. Bhaskar B. Ananthanarayana L. Jamdar S. Purification, identification, and characterization of novel angiotensin I converting enzyme (ACE) inhibitory peptides from alcalase digested horse gram flou || [28]; doi:10.1016/j.jff.2017.03.008; 28. Lin K. Zhang L. Han X. Cheng D.Y. Novel angiotensin I-converting enzyme inhibitory peptides from protease hydrolysates of Qula casein: Quantitative structure-activity relationship modeling and mol ||| ref 25 = [25]; doi:10.1016/j.lwt.2016.08.047; 25. Wang X. Chen H. Fu X. Li S. Wei J. A novel antioxidant and ACE inhibitory peptide from rice bran protein: Biochemical characterization and molecular docking study LWT Food Sci. Technol. 2017 75 93; details: cited from earlier work; for IC50: literature comparison
[2] = test system: spontaneously hypertensive rats (SHRs); assay: Antihypertensive effect in vivo, tail-cuff method; parameters: species or system rat; details: oral 50, 100 and 150 mg/kg body weight every day (Figure S3)
Procedure: Twenty male spontaneously hypertensive rats (SHRs; 11 weeks, 240 ± 20 g body weight) from Vital River Laboratory Animal Technology Co., Ltd. (Beijing, China) were randomly divided into five groups of four rats each: negative control, positive control, and high-, middle- and low- dosage groups. Normal diet and tap water were freely available. Rats in the high-, middle-, and low-dose groups were orally given the synthetic peptide (RWDISQPY) via gastric intubation at 150, 100, and 50 mg/kg/body weight once daily, respectively. Meanwhile, rats in the positive control were orally given captopril (14 mg/kg/body weight once daily), and rats in the negative control were just administrated saline (0.9%). The diastolic blood pressure (DBP) and systolic blood pressure (SBP) of the rats were measured by the tail-cuff method once a week. The heart rate was recorded simultaneously. The animal experiment was conducted in conformity with institutional guidelines for the care and use of laboratory animals in Shanxi Normal University (No. 20181003, 16 September 2018), Linfen, China. All of the rats received human care conforming to the National Institutes of Health Guide for Care and Use of Laboratory Animals (National Institute of Health Publication No. 85–23, revised).

Row | Compound | ACE inhibition pattern (ACE) | IC50 (ACE) | further results
1 | C[C@H](CS)C(=O)N1CCC[C@H]1C(=O)O [captopril] |  |  | Effect on ET-1 secretion [1]: reduce ET-1 secretion
2 | PFPGPIPN | competitive |  | 
3 | GSAGY [literature peptide identified from horrens protein] |  | 706 µM | 
4 | QLLLQQ | competitive |  | 
5 | VSRHFASYAN |  | 210 µM | 
6 | TVGMTAKF | competitive |  | 
7 | CC[C@H](C)[C@H](NC(=O)[C@H](CC(=O)O)NC(=O)[C@H](Cc1c[nH]c2ccccc12)NC(=O)[C@@H](N)CCCNC(=N)N)C(=O)N[C@@H](CO)C(=O)N[C@@H](CCC(N)=O)C(=O)N1CCC[C@H]1C(=O)N[C@@H](Cc1ccc(O)cc1)C(N)=O [RWDISQPY] (H-RWDISQPY-NH2) |  |  | Effect on heart rate [2]: no side effect; Effect on normal increase in body weight [2]: no side effect
8 | FGMPLDR |  | 219 µM | 
9 | QAGLSPVR |  | 63.9 µM | 
10 | NMAINPSKENLCSTFCK |  | 129 µM | 
